Assay results taken from article PMC9951859, “Investigation of α,ω-Disubstituted Polyamine-Cholic Acid Conjugates Identifies Hyodeoxycholic and Chenodeoxycholic Scaffolds as Non-Toxic, Potent Antimicrobials” (Antibiotics, 2023).

Assays:
human red blood cells = assay: Hemolytic assay; format: cell-based; conditions: concentration at 10% hemolytic activity on human red blood cells; mean (n = 2); top dose tested 32 μg/mL
Protocol: Hemolytic assays were conducted using the protocols previously reported.

[1] = test system: Candida albicans ATCC 90028; assay: Antimicrobial MIC assay (CO-ADD) against C. albicans; format: cell-based; conditions: Candida albicans, ATCC90028, read-out: MIC C.a., Candida albicans ATCC 90028; mean (n = 2)
Text: (§1) Antimicrobial evaluation against S. aureus (MRSA) (ATCC 43300), E. coli (ATCC 25922), K. pneumoniae (ATCC 700603), A. baumannii (ATCC 19606), C. albicans (ATCC 90028), and C. neoformans (ATCC 208821) was undertaken at the Community for Open Antimicrobial Drug Discovery at The University of Queensland (Australia) according to their standard protocols as reported previously.

[2] = test system: Acinetobacter baumannii ATCC 19606; assay: Antimicrobial MIC assay (CO-ADD) against A. baumannii; format: cell-based; conditions: Acinetobacter baumannii, ATCC19606, read-out: MIC A.b.
Text: as §1

E. coli ATCC 25922 = assay: Antibiotic enhancement of erythromycin; format: cell-based, Escherichia coli; conditions: erythromycin at 2 μg/mL
Protocol: (§2) Restoring enhancer concentrations were determined with an inoculum of 5 × 10^5 CFU in […] of MH broth containing two-fold serial dilutions of each derivative in the presence of either doxycycline or erythromycin at 2 μg/mL. […] These measurements were independently repeated in triplicate.

[3] = Cytotoxicity assay on HEK293; format: cell-based, human; conditions: human, HEK293 human embryonic kidney cells; concentration at 50% cytotoxicity on HEK293; mean (n = 2); top dose tested 32 μg/mL
Protocol: (§3) Cytotoxicity assays were conducted using the protocols previously reported.

[4] = test system: Staphylococcus aureus ATCC 43300 (MRSA); assay: Antimicrobial MIC assay (CO-ADD) against S. aureus MRSA; format: cell-based; conditions: Staphylococcus aureus, read-out: MIC S.a.
Text: as §1

[5] = test system: Pseudomonas aeruginosa ATCC 27853; assay: Antimicrobial MIC assay (CO-ADD) against P. aeruginosa; format: cell-based; conditions: Pseudomonas aeruginosa, ATCC27853, read-out: MIC P.a.
[6] = test system: Escherichia coli ATCC 25922; assay: Antimicrobial MIC assay (CO-ADD) against E. coli; format: cell-based; conditions: Escherichia coli, ATCC25922, read-out: MIC E.c.
Text: as §1

[7] = test system: Cryptococcus neoformans ATCC 208821; assay: Antimicrobial MIC assay (CO-ADD) against C. neoformans; format: cell-based; conditions: Cryptococcus neoformans, ATCC208821, read-out: MIC C.n.
Text: as §1

P. aeruginosa ATCC 27853 = assay: Antibiotic enhancement of doxycycline; format: cell-based, Pseudomonas aeruginosa; conditions: doxycycline at 2 μg/mL
Protocol: as §2

[8] = test system: Klebsiella pneumoniae ATCC 700603; assay: Antimicrobial MIC assay (CO-ADD) against K. pneumoniae; format: cell-based; conditions: Klebsiella pneumoniae, ATCC700603, read-out: MIC K.p.
Text: as §1

S. aureus = assay: ATP release bioluminescence assay; format: cell-based, Staphylococcus aureus; conditions: followed over 30 min after exposure, CTAB (1%) positive control
Protocol: Solutions of the test compound 7e were prepared in DMSO at various concentrations. A suspension of growing S. aureus to be studied in Muller-Hinton II broth was prepared and incubated at 37 °C. An aliquot (90 µL) of this suspension was added to 10 µL of test compound solution and vortexed for 10 s. Luciferin–luciferase reagent (Yelen, France; 50 µL) was immediately added to this mixture, and luminescent signal quantified with an Infinite M200 microplate reader (Tecan) over a 30 min period; ATP concentration was quantified using internal sample addition. A similar procedure was used for the CTAB positive control.

[9] = test system: HEK293 human embryonic kidney cells; assay: Cytotoxicity assay on HEK293; format: cell-based; conditions: concentration at 50% cytotoxicity on HEK293; mean (n = 2); top dose tested 32 μg/mL
Protocol: as §3

Compound | Hemolysis (HC10) (human red blood cells) [µM] | MIC [1] [µM] | MIC [2] [µM] | enhancement of antibiotic activity of erythromycin (E. coli ATCC 25922) | IC50 [3] [µM] | MIC [4] [µM] | MIC [5] [µM] | MIC [6] [µM] | MIC [7] [µM] | enhancement of antibiotic activity of doxycycline (P. aeruginosa ATCC 27853) | MIC [8] [µM] | ATP release (extracellular ATP, bioluminescence) (S. aureus) | Cytotoxicity (IC50) [9]
C[C@H](CCC(=O)NCCCNCCCCCCCCNCCCNC(=O)CC[C@@H](C)[C@H]1CC[C@H]2[C@@H]3C[C@H](O)[C@@H]4C[C@H](O)CC[C@]4(C)[C@H]3CC[C@]12C)[C@H]1CC[C@H]2[C@@H]3C[C@H](O)[C@@H]4C[C@H](O)CC[C@]4(C)[C@H]3CC[C@]12C.O=C(O)C(F)(F)F.O=C(O)C(F)(F)F [Compound 7d, N^1,N^8-Bis(3-((R)-4-((3R,5R,6S,8S,9S,10R,13R,14S,17R)-3,6-dihydroxy-10,13-dimethylhexadecahydro-1H-cyclopenta[a]phenanthren-17-yl)pentanamido)propyl)octane-1,8-diaminium 2,2,2-trifluoroacetate] | >26 | 13 | > 26 | No enhancement was observed | > 26 | ≤ 0.2 | > 26 | > 26 | ≤ 0.2 | No enhancement was observed | > 26 | – | –
CCCCCCCCCCCCCCCC[N+](C)(C)C [CTAB, cetyltrimethylammonium bromide, reference compound] | – | – | – | – | – | – | – | – | – | – | – | dramatically disrupted the S. aureus membrane after 2 min | –
C[C@H](CCC(=O)NCCCNCCCCCCCNCCCNC(=O)CC[C@@H](C)[C@H]1CC[C@H]2[C@@H]3C[C@H](O)[C@@H]4C[C@H](O)CC[C@]4(C)[C@H]3CC[C@]12C)[C@H]1CC[C@H]2[C@@H]3C[C@H](O)[C@@H]4C[C@H](O)CC[C@]4(C)[C@H]3CC[C@]12C.O=C(O)C(F)(F)F.O=C(O)C(F)(F)F [Compound 7c, N^1,N^7-Bis(3-((R)-4-((3R,5R,6S,8S,9S,10R,13R,14S,17R)-3,6-dihydroxy-10,13-dimethylhexadecahydro-1H-cyclopenta[a]phenanthren-17-yl)pentanamido)propyl)heptane-1,7-diaminium 2,2,2-trifluoroacetate] | >26 | 13 | > 26 | No enhancement was observed | > 26 | ≤ 0.21 | > 26 | > 26 | ≤ 0.21 | No enhancement was observed | > 26 | – | –
C[C@H](CCC(=O)NCCCNCCCCCCCCCCCCNCCCNC(=O)CC[C@@H](C)[C@H]1CC[C@H]2[C@@H]3[C@@H](O)C[C@@H]4C[C@H](O)CC[C@]4(C)[C@H]3CC[C@]12C)[C@H]1CC[C@H]2[C@@H]3[C@@H](O)C[C@@H]4C[C@H](O)CC[C@]4(C)[C@H]3CC[C@]12C.O=C(O)C(F)(F)F.O=C(O)C(F)(F)F [Compound 8f, N^1,N^12-Bis(3-((R)-4-((3R,5S,7S,8R,9S,10S,13R,14S,17R)-3,7-dihydroxy-10,13-dimethylhexadecahydro-1H-cyclopenta[a]phenanthren-17-yl)pentanamido)propyl)dodecane-1,12-diaminium 2,2,2-trifluoroacetate] | 1.4 | 3.1 | > 25 | – | 8.4 | ≤ 0.19 | > 25 | > 25 | ≤ 0.19 | – | > 25 | – | exhibiting cytotoxic properties
C[C@H](CCC(=O)NCCCNCCCCNCCCNC(=O)CC[C@@H](C)[C@H]1CC[C@H]2[C@@H]3[C@H](O)C[C@@H]4C[C@H](O)CC[C@]4(C)[C@H]3CC[C@]12C)[C@H]1CC[C@H]2[C@@H]3[C@H](O)C[C@@H]4C[C@H](O)CC[C@]4(C)[C@H]3CC[C@]12C.O=C(O)C(F)(F)F.O=C(O)C(F)(F)F [Compound 9a, N^1,N^4-Bis(3-((R)-4-((3R,5S,7R,8R,9S,10S,13R,14S,17R)-3,7-dihydroxy-10,13-dimethylhexadecahydro-1H-cyclopenta[a]phenanthren-17-yl)pentanamido)propyl)butane-1,4-diaminium 2,2,2-trifluoroacetate] | – | ≤ 0.21 | 27 | – | 27 | ≤ 0.21 | > 27 | 6.8 | ≤ 0.21 | – | > 27 | – | devoid of cytotoxicity
